From patent publication US20250171462A1 (NICO Therapeutics, Inc., priority 2022, published 2025)
Where two headings read alike, the source gives them in different places.

Biological target: T1, full-length SARM1 (FL-SARM1) (Homo sapiens, UniProt Q6SZW1)
T1 sequence (Q6SZW1 28-724): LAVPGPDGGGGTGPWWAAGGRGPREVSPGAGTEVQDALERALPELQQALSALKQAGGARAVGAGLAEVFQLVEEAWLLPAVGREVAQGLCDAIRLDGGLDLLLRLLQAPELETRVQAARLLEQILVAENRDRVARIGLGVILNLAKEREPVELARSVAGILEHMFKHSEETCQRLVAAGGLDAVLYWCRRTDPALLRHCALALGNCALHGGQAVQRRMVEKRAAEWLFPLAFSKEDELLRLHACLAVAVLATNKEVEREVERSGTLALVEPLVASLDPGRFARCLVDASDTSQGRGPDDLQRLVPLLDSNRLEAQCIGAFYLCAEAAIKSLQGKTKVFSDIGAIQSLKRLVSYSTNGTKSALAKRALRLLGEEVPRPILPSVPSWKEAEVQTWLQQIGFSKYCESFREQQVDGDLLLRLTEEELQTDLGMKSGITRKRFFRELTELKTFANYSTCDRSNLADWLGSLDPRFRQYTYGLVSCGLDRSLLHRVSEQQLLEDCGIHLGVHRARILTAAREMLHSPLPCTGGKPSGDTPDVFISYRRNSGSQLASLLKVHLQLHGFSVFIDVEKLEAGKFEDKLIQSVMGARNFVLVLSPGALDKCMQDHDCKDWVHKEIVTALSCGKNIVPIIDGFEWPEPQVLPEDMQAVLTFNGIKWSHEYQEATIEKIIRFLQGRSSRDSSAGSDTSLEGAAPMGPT
Assay: FL-SARM1 cellular lysate assay (NAD/NADH-Glo detection of remaining NAD+, NMN-activated)

[1] = Activity (IC50 class), 11 point curve
[2] = Activity (μM) (IC50), 11 point curve
[3] = read-out: Activity (IC50 class), 11 point curve

Experimental: Preparation of full-length SARM1 (FL-SARM1) lysate: HEK293T cells (ATCC: CRL-3216) were grown on 150 mm TC-treated dishes to 80-90% confluency in complete DMEM (DMEM (Thermo Fisher: 11965175) supplemented with 10% HI—FBS (VWR: 10802-772), 1× Pen/Strep (Thermo Fisher: 15140122), 1×NEAA (Thermo Fisher: 1140050), 1× glutamax (Thermo Fisher: 35050061), and 1 mM sodium pyruvate (Thermo Fisher: 11360070)) at 37° C. and 5% CO2. One hour prior to transfection, the media was replaced with fresh, 37° C. complete DMEM (20 mL per one 150 mm dish) supplemented with additional 10 mM glucose (Alfa Aesar AAJ60067EQE). Per one 150 mm dish, 30 μg FL-SARM1 (SEQ. ID. 1; cloned in-house) plasmid was dissolved in 1 mL DMEM at ambient temperature and were mixed by inverting the tube 8-10 times. 90 μL of GenJet™ in vitro DNA transfection reagent (Ver2) was dissolved in 1 mL DMEM at ambient temperature and were mixed by inverting the tube 8-10 times. The plasmid and transfection agent solutions were combined, mixed by 8-10 inversions and incubated for 10 minutes at ambient temperature. 2 mL of this transfection mixture was added to each dish containing HEK293T cells as prepared above followed by a gentle mixing of 4-5 horizontal rotations. The dishes were incubated at 37° C. and 5% CO2 for 24 h. The dishes were removed from the incubator, the medium was aspirated and the cells were scraped off using cell scrapers in ice-cold 1×PBS (5 mL/dish, Thermo Fisher Scientific 10010023). The collected cells were centrifuged at 300 g for 5 minutes at 4° C. The supernatant was aspirated and the pellet was frozen at −80° C. until needed. The cell pellet from 30 dishes was dissolved in 30 mL 1×PBS supplemented with 4 tablets of Complete, Mini EDTA-free protease inhibitor cocktail at 4° C. This mixture was sonicated on ice for 10 minutes at 50% amplitude with a 1 second on/1 second off interval using a Model 120 sonicator (Thermo Fisher Scientific, FB120110). The lysate was centrifuged at 16000 g for 10 minutes at 4° C.
To a white 384-well Proxiplate (PerkinElmer, PE-6008280) was added 50 nL/well of a DMSO solution containing test compounds followed by 7.5 μL/well of a 0.067 mg/mL solution of SARMi cellular lysate in reaction buffer (DPBS containing CHAPSO (0.1%) and fatty acid free BSA (0.032%)). The plate was centrifuged for 1 minute at 1000 RPM and then placed in an incubator at 23° C. for 15 minutes. To the wells were added 2.5 μL/well of a solution containing 40 M NAD^+ and 4 mM nicotinamide mononucleotide (NMN) in reaction buffer. The plate was centrifuged for 1 min at 1000 RPM, the plate was sealed and placed in an incubator at 23° C. for 3.5 hours before adding 3.5 μL/well of NAD/NADH-Glo™ solution (preparation as described by Promega using the extended detection protocol). The plate was centrifuged for 1 minute at 1000 RPM and then incubated at 23° C. for 20 minutes. 1 μL/well of a 3.625 mM solution of menadione in DMSO was added and the plate was centrifuged for 1 minute at 1000 RPM. Relative light units (RLU) were recorded using an Envision plate reader at a height of 6.5 mm.
IC50 values were calculated from an 11 point curve using ½ log dilutions using a four-parameter logistic regression curve fit.

Compound | IC50 [1] [µM] | IC50 [2] [µM] | IC50 [3] [µM]
O=C(Nc1ccc(C(F)(F)F)c(-c2ncc(F)cn2)c1)[C@H]1C[C@H]2C[C@H]2N1c1ccccn1 [Example 301, (1R,3R,5R)-N-(3-(5-fluoropyrimidin-2-yl)-4-(trifluoromethyl)phenyl)-2-(pyridin-2-yl)-2-azabicyclo[3.1.0]hexane-3-carboxamide] | 1 to 10 | 2.1 | –
O=C(Nc1ccc(C(F)(F)F)c(-c2ncc(F)cn2)c1)C1C2CCC1CC2 (stereo not drawn) [Example 303, N-(3-(5-fluoropyrimidin-2-yl)-4-(trifluoromethyl)phenyl) bicyclo[2.2.1]heptane-e-7-carboxamide] | – | 0.5 | 0.0001 to 1
O=C(Nc1ccc(C(F)(F)F)c(-c2ncc(F)cn2)c1)N1CCCC2CC2C1 (stereo not drawn) [Example 304, N-(3-(5-fluoropyrimidin-2-yl)-4-(trifluoromethyl)phenyl)-3-azabicyclo[5.1.0]octane-3-carboxamide] | 1 to 10 | 2.4 | –
CNC(=O)CC12CC(C)CC(C1)N2C(=O)Nc1ccc(C)c(-c2ncc(F)cn2)c1 (stereo not drawn) [Example 305, N-(3-(5-fluoropyrimidin-2-yl)-4-methylphenyl)-3-methyl-1-(2-(methylamino)-2-oxoethyl)-6-azabicyclo[3.1.1]heptane-6-carboxamide] | – | 0.01 | 0.0001 to 1
CO[C@@H]1CCCN(C(=O)Nc2ccc(C(F)(F)F)c(-c3ncc(F)cn3)c2)CC1 [Example 306, (R)-N-(3-(5-fluoropyrimidin-2-yl)-4-(trifluoromethyl)phenyl)-4-methoxyazepane-1-carboxamide] | 1 to 10 | 9.6 | –
CO[C@H]1CCCN(C(=O)Nc2ccc(C(F)(F)F)c(-c3ncc(F)cn3)c2)CC1 [Example 307, (S)-N-(3-(5-fluoropyrimidin-2-yl)-4-(trifluoromethyl)phenyl)-4-methoxyazepane-1-carboxamide] | > 10 | 13 | –
CO[C@@H]1CCCCN(C(=O)Nc2ccc(C(F)(F)F)c(-c3ncc(F)cn3)c2)C1 [Example 308, (R)-N-(3-(5-fluoropyrimidin-2-yl)-4-(trifluoromethyl)phenyl)-3-methoxyazepane-1-carboxamide] | > 10 | 32 | –
O=C(Nc1ccc(C(F)(F)F)c(-c2ncc(F)cn2)c1)N1C2CC3CC(C2)CC1C3 [Example 310, N-(3-(5-fluoropyrimidin-2-yl)-4-(trifluoromethyl)phenyl)-2-azaadamantane-2-carboxamide] | – | 0.7 | 0.0001 to 1
O=C(Nc1ccc(C(F)(F)F)c(-c2ncc(F)cn2)c1)N1C2CCCCC1C2 [Example 311, N-(3-(5-fluoropyrimidin-2-yl)-4-(trifluoromethyl)phenyl)-7-azabicyclo[4.1.1]octane-7-carboxamide] | – | 0.1 | 0.0001 to 1
O=C(Nc1ccc(C(F)(F)F)c(-c2ncc(F)cn2)c1)N1CCCCCC1 [Example 313, N-(3-(5-fluoropyrimidin-2-yl)-4-(trifluoromethyl)phenyl) azepane-1-carboxamide] | – | 0.8 | 0.0001 to 1
C[C@@H]1CC2C[C@H](C1)N2C(=O)Nc1ccc(Br)c(-c2nccnn2)c1 [Example 315] | – | 0.08 | 0.0001 to 1
Cc1ccc(NC(=O)[C@H]2CC[C@@H](C)N2c2ccc(F)cn2)cc1-c1ncc(F)cn1 [Example 316] | 1 to 10 | 1.7 | –
Cc1ccc(NC(=O)[C@H]2C[C@@H](c3ccccc3)CN2c2ncccn2)cc1-c1ncc(F)cn1 [Example 319] | 1 to 10 | 6.7 | –
Cc1cnc(-c2cc(NC(=O)N3[C@@H]4C[C@@H](C)C[C@H]3C4)c(F)cc2Cl)nn1 [Example 320] | – | 0.6 | 0.0001 to 1
CC(=O)N1C[C@H](c2ccccc2)C[C@@H]1C(=O)Nc1ccc(C)c(-c2ncc(F)cn2)c1 [Example 321] | > 10 | 24 | –
Cc1ccc(NC(=O)[C@H]2[C@@H]3CC[C@@H](C3)N2c2ncccn2)cc1-c1ncc(F)cn1 [Example 322] | > 10 | 13 | –
C[C@@H]1C[C@@H]2C[C@H](C1)N2C(=O)Nc1cc(-c2nccnn2)c(Cl)cc1F [Example 323] | – | 0.2 | 0.0001 to 1
CO[C@@H]1C[C@H](C(=O)Nc2ccc(C)c(-c3ncc(F)cn3)c2)N(c2ncccn2)C1 [Example 324] | > 10 | 17 | –
Cc1ccc(NC(=O)[C@@H]2C[C@@H]3C[C@@H]3C2)cc1-c1ncc(F)cn1 [Example 325] | 1 to 10 | 1.2 | –
Cc1ccc(NC(=O)N2C3CCCC2C3)cc1-c1ncc(F)c(C)n1 [Example 326] | 1 to 10 | 1.4 | –
Cc1ccc(NC(=O)OCC2CC2)cc1-c1ncccn1 [Example 328] | > 10 | 31 | –
